Source: ChEMBL document CHEMBL2385014, “Melanogenesis inhibitory daphnane diterpenoids from the flower buds of Daphne genkwa” (Bioorg Med Chem Lett, 2013)

Tests used:
B16 [1] = experiment: Cytotoxicity against alpha-MSH stimulated mouse B16 cells after 72 hrs by MTT assay; assay type: cell-based; details: B16, 72 h
B16 [2] = experiment: Inhibition of melanin production in alpha-MSH stimulated mouse B16 cells after 72 hrs by spectrophotometry; assay type: functional, cell-based; details: for IC50: B16, 72 h

Row | SMILES | IC50 (B16 [1]) [µM] | inhibition (B16 [2]) | IC50 (B16 [2]) [µM]
1 | C=C(C)[C@]12C[C@@H](C)[C@@]34OC(c5ccccc5)(O[C@@H]1[C@@H]3[C@H](O)[C@](O)(COC(=O)/C=C/C=C/CCCCC)[C@@H](O)[C@@]1(O)[C@H]4C[C@H](C)[C@@H]1O)O2 | > 30 | Dose-dependent effect | 0.57
2 | C=C(C)[C@@]12O[C@@]3(/C=C/C=C/CCCCC)O[C@@H]1[C@@H]1[C@@H]4O[C@]4(CO)[C@@H](O)[C@]4(O)C(=O)C(C)=C[C@H]4[C@@]1(O3)[C@H](C)[C@H]2OC(C)=O [YUANHUADINE] | 22 | Dose-dependent effect | 0.06
3 | C=C(C)[C@@]12OC3(/C=C/C=C/CCCCC)O[C@@H]1[C@@H]1[C@@H]4O[C@]4(CO)[C@@H](O)[C@]4(O)C(=O)C(C)=C[C@H]4[C@@]1(O3)[C@H](C)[C@H]2OC(=O)CC | 28 | Dose-dependent effect | 0.19
4 | C=C(C)[C@@]12OC3(C)O[C@@H]1[C@@H]1C=C(CO)C[C@]4(O)C(=O)C(C)=C[C@H]4[C@@]1(O3)[C@H](C)[C@H]2OC(C)=O | > 30 | Dose-dependent effect | 4.9
5 | C=C(C)[C@]12C[C@@H](C)[C@@]34OC(c5ccccc5)(O[C@@H]1[C@@H]3[C@H](O)[C@](O)(CO)[C@@H](O)[C@@]1(O)[C@H]4C[C@H](C)[C@@H]1O)O2 | > 30 | Dose-dependent effect | 9
6 | OC[C@H]1O[C@@H](Oc2ccc(O)cc2)[C@H](O)[C@@H](O)[C@@H]1O [ARBUTIN] |  |  | 140
7 | C=C(C)[C@@]12OC3(C)O[C@@H]1[C@@H]1C=C(CO)C[C@]4(O)C(=O)C(C)=C[C@H]4[C@@]1(O3)[C@H](C)[C@H]2OC(=O)c1ccccc1 | 6.6 |  | 2.3
8 | C=C(C)[C@@]12OCO[C@@H]1[C@@H]1[C@@H]3O[C@]3(CO)[C@@H](O)[C@]3(O)C(=O)C(C)=C[C@H]3[C@@]1(Oc1ccccc1)[C@H](C)[C@H]2OC(=O)c1ccccc1 [GENKWADAPHNIN] | > 30 | Dose-dependent effect | 0.18
9 | C=C(C)[C@@]12O[C@@]3(/C=C/C=C/CCCCC)O[C@@H]1[C@@H]1[C@@H]4O[C@]4(CO)[C@@H](O)[C@]4(O)C(=O)C(C)=C[C@H]4[C@@]1(O3)[C@H](C)[C@H]2OC(=O)c1ccccc1 [GNIDILATIDIN] | > 30 | Dose-dependent effect | 0.16
10 | C=C(C)[C@]12C[C@@H](C)[C@@]34OC(c5ccccc5)(O[C@@H]1[C@@H]3[C@H](O)[C@](O)(COC(=O)c1ccccc1)[C@@H](O)[C@@]1(O)[C@H]4C[C@H](C)[C@@H]1O)O2 | > 30 | Dose-dependent effect | 2
